# Source: US10836732B2, “Compounds for combating arthropods” (priority 2013, dated 2020)
# Legend:
# Assay type in all cases: in vivo
# Ctenocephalides felis [1] = test: Ctenocephalides felis - in vitro contact tests with fleas (CTECFE); details: 1 μg/cm^2, adult fleas, after 48 h
# Description: (§1) For the coating of the test tubes, 9 mg of active ingredient are first dissolved in 1 ml of acetone p.a. and then diluted to the desired concentration with acetone p.a. 250 μl of the solution are distributed homogeneously on the inner walls and base of a test tube (25 ml crimp top vial (Fisher Scientific, Order No. 320 55 60) by turning and rocking on a “Rock ‘n’ Roller” (Model L202, Labinco; rocking rotation at 30 rpm in a fume hood for 2 h). With 900 ppm active ingredient solution and internal surface area 44.7 cm^2, given homogeneous distribution, an area-based dose of 5 μg/cm^2 is achieved.
# Preparation examples for the inventive halogen-substituted compounds of the formula (I) are tested for their contact efficiency with ectoparasitic insects (cat fleas here). For this purpose, crimp top vials are coated with 250 μl of an acetone solution of the active ingredient as described above. After the solvent has evaporated off, the tubes are populated with 5-10 fleas (adult Ctenocephalides felis), sealed with a perforated plastic lid and incubated in a horizontal position at room temperature and ambient humidity. After 48 h, efficacy (knockdown and mortality) and mortality are determined To this end, the test tubes are stood upright and the fleas are knocked to the base of the tube. […]
# Myzus persicae = Myzus persicae - spray test; details: 100 g/ha, Chinese cabbage leaf discs, after 6 days
# Description: Solvent: 78 parts by weight of acetone
# (§2) • 1.5 parts by weight of dimethylformamide Emulsifier: alkylaryl polyglycol ether
# (§3) To produce an appropriate active ingredient formulation, 1 part by weight of active ingredient is dissolved using the specified parts by weight of solvent and made up with water containing an emulsifier concentration of 1000 ppm until the desired concentration is attained. To produce further test concentrations, the preparation is diluted with emulsifier-containing water.
# Discs of Chinese cabbage leaves (Brassica pekinensis) infested by all stages of the green peach aphid (Myzus persicae) are sprayed with an active ingredient formulation of the desired concentration.
# After 6 days, efficacy in % is determined. 100% means that all the aphids have been killed; 0% means that none of the aphids have been killed.
# Tetranychus urticae = Tetranychus urticae - spray test, OP-resistant; details: 100 g/ha, bean leaf discs, after 6 days
# Description: (§4) Solvent: 78.0 parts by weight of acetone
# as §2, §3
# Discs of bean leaves (Phaseolus vulgaris) infested by all stages of the greenhouse red spider mite (Tetranychus urticae) are sprayed with an active ingredient formulation of the desired concentration.
# After 6 days, efficacy in % is determined 100% means that all the spider mites have been killed; 0% means that none of the spider mites have been killed.
# Ctenocephalides felis [2] = test: Ctenocephalides felis - oral test; details: 100 ppm in citrated cattle blood, adult cat fleas, after 2 days
# Description: (§5) Solvent: dimethyl sulphoxide
# (§6) For the purpose of producing an appropriate active ingredient formulation, 10 mg of active ingredient are mixed with 0.5 ml of dimethyl sulphoxide. Dilution with citrated cattle blood gives the desired concentration.
# (§7) About 20 unfed adult cat fleas (Ctenocephalides felis) are placed into a chamber which is closed at the top and bottom with gauze. A metal cylinder whose bottom end is closed with parafilm is placed onto the chamber. The cylinder contains the blood/active ingredient preparation, which can be imbibed by the fleas through the parafilm membrane.
# (§8) After 2 days, the kill in % is determined 100% means that all of the fleas have been killed; 0% means that none of the fleas have been killed.
# Ctenocephalides felis [3] = test: Ctenocephalides felis - oral test (CTECFE); details: 20 ppm in citrated cattle blood, adult cat fleas, after 2 days
# Description: as §5, §6, §7, §8
# [4] = tested on: Aedes aegypti strain MONHEIM; test: Aedes test (AEDSAE surface treatment); details: read-out: efficacy (mortality in %)
# Description: (§9) Solvent: acetone+2000 ppm rapeseed oil methyl ester (RME)
# To produce an appropriate active ingredient formulation, the active ingredient is dissolved in the solvent (2 mg/ml). The active ingredient formulation is pipetted onto a glazed tile and, after it has dried off, adult mosquitoes of the species Aedes aegypti strain MONHEIM are placed onto the treated tile. The exposure time is 30 minutes.
# (§10) 24 hours after contact with the treated surface, mortality in % is determined 100% means that all mosquitoes have been killed; 0% means that none of the mosquitoes have been killed.
# Musca domestica [5] = test: Musca domestica test (MUSCDO); details: 20 ppm, adult houseflies, after 2 days
# Description: as §5
# (§11) To produce an appropriate active ingredient formulation, 10 mg of active ingredient are mixed with 0.5 ml of dimethyl sulphoxide, and the concentrate is diluted with water to the desired concentration.
# (§12) Vessels containing a sponge treated with sugar solution and the active ingredient formulation of the desired concentration are populated with 10 adult houseflies (Musca domestica).
# After 2 days, the kill in % is determined 100% means that all of the flies have been killed or knocked down; 0% means that none of the flies have been killed or knocked down.
# Musca domestica [6] = test: Musca domestica - test; details: 100 ppm, adult houseflies, after 2 days
# Description: as §5, §11, §12
# After 2 days, the kill in % is determined 100% means that all of the flies have been killed; 0% means that none of the flies have been killed.
# Spodoptera frugiperda = Spodoptera frugiperda - spray test; details: 100 g/ha, maize leaf discs, after 7 days
# Description: as §4, §2, §3
# Leaf discs of maize (Zea mays) are sprayed with an active ingredient formulation of the desired concentration and, after drying, populated with caterpillars of the armyworm (Spodoptera frugiperda).
# After 7 days, efficacy in % is determined. 100% means that all the caterpillars have been killed; 0% means that no caterpillars have been killed.
# [7] = tested on: Anopheles funestus strain FUMOZ-R; test: Anopheles test (ANPHFU surface treatment); details: Anopheles funestus, read-out: efficacy (mortality in %)
# Description: as §9
# To produce an appropriate active ingredient formulation, the active ingredient is dissolved in the solvent (2 mg/ml). The active ingredient formulation is pipetted onto a glazed tile and, after it has dried off, adult mosquitoes of the species Anopheles funestus strain FUMOZ-R (Hunt et al., Med Vet Entomol. 2005 September; 19(3):271-5) are placed onto the treated tile. The exposure time is 30 minutes.
# as §10
# Rhipicephalus sanguineus = Rhipicephalus sanguineus - in vitro contact tests with brown dog ticks (RHIPSA); details: 1 μg/cm^2, adult ticks, after 48 h
# Description: as §1
# Preparation examples for the inventive halogen-substituted compounds of the formula (I) are tested for their contact efficiency with ectoparasitic arachnids (brown dog ticks here). For this purpose, crimp top vials are coated with 250 μl of an acetone solution of the active ingredient as described above. […] After 48 h, efficacy (knockdown and mortality) and mortality are determined To this end, the ticks are knocked to the floor of the tube and incubated on a hotplate at 45-50° C. for not more than 5 min Ticks which remain motionless on the floor or move in such an uncoordinated manner that they are unable to deliberately avoid the heat by climbing upwards are considered to be dead or knocked down (moribund).
smiles,measurement,setting,value
"Cc1cc(C(F)(C(F)(F)F)C(F)(F)F)cc(C)c1-c1cn(-c2ccc(Cl)c(C(=O)NC3CC3)c2)nn1 [I-T48-1, 2-chloro-N-cyclopropyl-5-[4-[2,6-dimethyl-4-[1,2,2,2-tetrafluoro-1-(trifluoromethyl)ethyl]phenyl]triazol-1-yl]benzamide]",efficacy (moribund/knocked down or dead),Ctenocephalides felis [1],100%
same,efficacy (aphids killed),Myzus persicae,100%
same,efficacy (spider mites killed),Tetranychus urticae,100%
same,efficacy (kill in %),Ctenocephalides felis [2],100%
same,efficacy (kill in %),Ctenocephalides felis [3],100%
same,mortality at 20 mg/m2,[4],90 to 100%
same,mortality at 100 mg/m2,[4],90 to 100%
same,efficacy (killed or knocked down),Musca domestica [5],100%
same,efficacy (kill in %),Musca domestica [6],100%
same,efficacy (caterpillars killed),Spodoptera frugiperda,100%
same,mortality at 100 mg/m2,[7],90 to 100%
same,efficacy (dead or knocked down),Rhipicephalus sanguineus,100%
